Where “and” joins values, the source holds several entries; their conditions need not be identical. Identical values can stand only once.
Assays:
SARS-CoV-2 [1] = type: cell-based
[2] = molecular target: SARS-CoV-2 main protease Mpro (Severe acute respiratory syndrome coronavirus 2, UniProt P0DTD1); assay: cell-based; conditions: IC50 in inhibiting Mpro
Vero E6 cells = assay: Cytotoxicity, WST-1 cell proliferation assay; type: cell-based, African green monkey; conditions: for concentration at which cytotoxic: Vero E6 cells
SARS-CoV-2 [3] = assay: Viral particle inactivation / time-of-addition, plaque assay on Vero E6 cells; type: cell-based
SARS-CoV-2 viral RNA = assay: Viral RNA quantification by qRT-PCR in Vero cells and supernatant; type: cell-based; conditions: 5 μM
SARS-CoV-2 [4] = type: cell-based; conditions: virus treated with 5 μM for 1 hour, MOI = 100, Vero E6
SARS-CoV-2 [5] = assay: Plaque assay on A549^ACE2 cells with ethacridine-treated virus; type: cell-based; conditions: 5 uM, 1 hr pre-incubation
SARS-CoV-2 [6] = type: cell-based; conditions: 5 μM, 48 hours, anti-N and anti-S staining
[7] = 20 mg/kg, i.p. injection; cited from earlier work
[8] = rat, mice and rabbits; cited from earlier work

Compound: CCC(CC)COC(=O)[C@H](C)N[P@](=O)(OC[C@H]1O[C@@](C#N)(c2ccc3c(N)ncnn23)[C@H](O)[C@@H]1O)Oc1ccccc1 [Remdesivir, remdesivir]
- reduction in viral titer (SARS-CoV-2 [1]): ~ 4 log

Compound: CCOc1ccc2nc3cc(N)ccc3c(N)c2c1 [Ethacridine, ethacridine]
- IC50 [2]: ~3.54 µM and ~3.5 µM
- reduction in viral titer (SARS-CoV-2 [1]): 5 – 6 log
- cell toxicity (Vero E6 cells; Vero E6 (Fig. 3e)): very little cell toxicity
- reduction in viral titer, DMSO + Eth. (SARS-CoV-2 [3]; 5 μM, drug added after viral entry): 3 – 4 logs
- reduction in viral titer, Eth. + Eth. (SARS-CoV-2 [3]; 5 μM, drug present continuously prior to plaque assay, versus DMSO + DMSO): 3 – 4 logs
- reduction in viral titer, Eth. + Eth. (SARS-CoV-2 [3]; 5 μM, plaque assay): 2400 fold
- reduction in infectivity, Eth. [1 hr] (SARS-CoV-2 [3]; virus pre-incubated with drug 1 hr, plaque assay without drug): 3 – 4 logs
- change of viral RNA (vRNA) levels, DMSO + Eth. (SARS-CoV-2 viral RNA; drug added after binding and entry, supernatant and cells): no change
- reduction in vRNA copies, Eth. + Eth. (SARS-CoV-2 viral RNA; drug present continuously, supernatant and within the cells): 4 – 5 fold
- detectable anti-N and anti-S fluorescence on cells (SARS-CoV-2 [4]): dramatic reduction
- infectivity of drug-treated virus on A549^ACE2 cells (SARS-CoV-2 [5]): dramatic decrease in infectivity
- proportion of infected primary nasal cells (SARS-CoV-2 [6]): dramatically decreased
- toxicity in mice [7]: no toxicity
- toxicity in animal models [8]: non-toxic

Compound: ivermectin
- concentration at which cytotoxic (Vero E6 cells): 5 to 13 µM

Compound: COc1ccc2c(O[C@@H]3C[C@H]4C(=O)N[C@]5(C(=O)NS(=O)(=O)C6CC6)C[C@H]5/C=C\CCCCN(C)C(=O)[C@@H]4C3)cc(-c3nc(C(C)C)cs3)nc2c1C [Simeprevir, simeprevir]
- reduction in viral titer (SARS-CoV-2 [1]): ~ 4 log

Compound: verteporfin
- concentration at which cytotoxic (Vero E6 cells): 5 to 13 µM

Compound: CC(=O)[C@@]1(O)CC[C@H]2[C@@H]3CCC4=CC(=O)CC[C@]4(C)[C@H]3CC[C@@]21C [Hydroxyprogesterone, hydroxyprogesterone]
- reduction in viral titer (SARS-CoV-2 [1]): ~ 1 log

Compound: O=c1c2ccccc2[se]n1-c1ccccc1 [ebselen]
- reduction in viral titer (SARS-CoV-2 [1]): ~ 2 log

Compound: C[C@@H](NCCCc1cccc(C(F)(F)F)c1)c1cccc2ccccc12 [Cinacalcet, cinacalcet]
- reduction in viral titer (SARS-CoV-2 [1]): ~ 1 log
